In paper PMC8236452, “Pharmacokinetics and safety of rucaparib in patients with advanced solid tumors and hepatic impairment” (Cancer Chemotherapy and Pharmacology, 2021):

Legend:
[1] = system: patients with advanced solid tumors; experiment: Safety and tolerability (TEAEs) after a single oral dose of rucaparib 600 mg; assay type: in vivo, human; settings: for TEAE: Abdominal pain / TEAE: Cholangitis / TEAE: Hyperbilirubinemia / TEAE: Hypokalemia: Grade 3 event; for TEAE: Multiple organ dysfunction syndrome: Grade 5 event
Description: Safety and tolerability assessments comprised adverse events, clinical laboratory parameters, vital signs, 12-lead ECG, physical examination, and ECOG PS. For part 1 of this study, symptom-associated physical examination and safety laboratory tests, including clinical chemistry, hematology, coagulation, and urinalysis, were performed on day 7 after administration of the first dose of the study medication; 12-lead ECGs were performed 2 and 4 h postdose. All safety assessments were performed at the end of the treatment visit. Treatment-emergent adverse events (TEAEs) were defined as adverse events with an onset date on or after the date of first dose of study treatment until 28 days after the last dose. Causality of treatment-emergent adverse events was evaluated by investigators based on clinical and scientific data for rucaparib, including previously observed and known reactions, temporal relationship of event to rucaparib administration, patient response on […] rechallenge with the drug, medical history and ongoing concomitant conditions, natural course of the disease, potential effects of concomitant medications and interactions with the study drug, and biological plausibility of the event based on mechanism of action of rucaparib.

[2] = system: patients; parameters: method as in PMID 28264872; settings: dose escalation study; not reached; cited from earlier work
[3] = parameters: method as in PMID 28222073; settings: immediate-release tablet; cited from earlier work
[4] = parameters: method as in PMID 29799676, PMID 31250355, PMID 28264872; settings: 600 mg BID, cited from earlier work
[5] = Moderate hepatic impairment (NCI-ODWG, n = 8)
[6] = Normal hepatic function (NCI-ODWG, n = 8)

Compound: CNCc1ccc(-c2[nH]c3cc(F)cc4c3c2CCNC4=O)cc1 [rucaparib]
- TEAE: Anemia [1, 5]: 1 (12.5) n (%)
- TEAE: Ascites [1, 5]: 1 (12.5) n (%)
- TEAE: Body temperature increased [1, 5]: 1 (12.5) n (%)
- TEAE: Conjunctival hemorrhage [1, 5]: 1 (12.5) n (%)
- TEAE: Decreased appetite [1, 5]: 0 n (%)
- TEAE: Nausea [1, 5]: 0 n (%)
- TEAE: Pyrexia [1, 5]: 1 (12.5) n (%)
- TEAE: Renal failure [1, 5]: 1 (12.5) n (%)
- TEAE: Thrombocytopenia [1, 5]: 1 (12.5) n (%)
- TEAE: Urinary tract infection [1, 5]: 1 (12.5) n (%)
- TEAEs: Patients with any event [1, 5]: 6 (75.0) n (%)
- TEAE: Abdominal pain [1, 5]: 1 (12.5) n (%)
- TEAE: Cholangitis [1, 5]: 1 (12.5) n (%)
- TEAE: Hyperbilirubinemia [1, 5]: 1 (12.5) n (%)
- TEAE: Hypokalemia [1, 5]: 1 (12.5) n (%)
- TEAE: Multiple organ dysfunction syndrome [1, 5]: 1 (12.5) n (%)
- TEAE: Anemia [1, 6]: 0 n (%)
- TEAE: Ascites [1, 6]: 0 n (%)
- TEAE: Body temperature increased [1, 6]: 0 n (%)
- TEAE: Conjunctival hemorrhage [1, 6]: 0 n (%)
- TEAE: Decreased appetite [1, 6]: 1 (12.5) n (%)
- TEAE: Nausea [1, 6]: 1 (12.5) n (%)
- TEAE: Pyrexia [1, 6]: 0 n (%)
- TEAE: Renal failure [1, 6]: 0 n (%)
- TEAE: Thrombocytopenia [1, 6]: 0 n (%)
- TEAE: Urinary tract infection [1, 6]: 0 n (%)
- TEAEs: Patients with any event [1, 6]: 2 (25.0) n (%)
- TEAE: Abdominal pain [1, 6]: 0 n (%)
- TEAE: Cholangitis [1, 6]: 0 n (%)
- TEAE: Hyperbilirubinemia [1, 6]: 0 n (%)
- TEAE: Hypokalemia [1, 6]: 0 n (%)
- TEAE: Multiple organ dysfunction syndrome [1, 6]: 0 n (%)
- TEAE: Anemia ([1]; Overall (N = 16)): 1 (6.3) n (%)
- TEAE: Ascites ([1]; Overall (N = 16)): 1 (6.3) n (%)
- TEAE: Body temperature increased ([1]; Overall (N = 16)): 1 (6.3) n (%)
- TEAE: Conjunctival hemorrhage ([1]; Overall (N = 16)): 1 (6.3) n (%)
- TEAE: Decreased appetite ([1]; Overall (N = 16)): 1 (6.3) n (%)
- TEAE: Nausea ([1]; Overall (N = 16)): 1 (6.3) n (%)
- TEAE: Pyrexia ([1]; Overall (N = 16)): 1 (6.3) n (%)
- TEAE: Renal failure ([1]; Overall (N = 16)): 1 (6.3) n (%)
- TEAE: Thrombocytopenia ([1]; Overall (N = 16)): 1 (6.3) n (%)
- TEAE: Urinary tract infection ([1]; Overall (N = 16)): 1 (6.3) n (%)
- TEAEs: Patients with any event ([1]; Overall (N = 16)): 8 (50.0) n (%)
- TEAE: Abdominal pain ([1]; Overall (N = 16)): 1 (6.3) n (%)
- TEAE: Cholangitis ([1]; Overall (N = 16)): 1 (6.3) n (%)
- TEAE: Hyperbilirubinemia ([1]; Overall (N = 16)): 1 (6.3) n (%)
- TEAE: Hypokalemia ([1]; Overall (N = 16)): 1 (6.3) n (%)
- TEAE: Multiple organ dysfunction syndrome ([1]; Overall (N = 16)): 1 (6.3) n (%)
- Patients who withdrew from the study due to a TEAE ([1]; after completion of PK assessment in Part 1, both in the moderate hepatic impairment group): two
- Patients who experienced at least 1 TEAE ([1]; all 16 patients): 50%
- System Organ Class TEAEs: gastrointestinal disorders ([1]; all 16 patients, abdominal pain, ascites, nausea): 18.8%
- Patients with at least 1 TEAE of grade 3 or higher ([1]; all in the moderate hepatic impairment group): Four
- TEAEs considered treatment related ([1]; grade 1 anemia and grade 1 thrombocytopenia, one patient, moderate hepatic impairment group): 2 TEAEs
- Patients who experienced at least 1 TEAE ([1]; moderate hepatic impairment group): 75.0%
- Patients who experienced at least 1 TEAE ([1]; normal hepatic function group): 25.0%
- Trends in clinical laboratory parameters, vital signs, ECG, physical examinations ([1]; single oral rucaparib 600 mg): no clinically relevant treatment-related trends observed
- maximum tolerated dose [2]: > 840 mg BID
- absolute bioavailability, range [3]: 30–45%
- mean absolute bioavailability [3]: 36%
- AUC0–12 h at steady state ([4]; 54% CV): 16900 h⋅ng/mL
- mean steady-state maximum plasma concentration (Cmax,ss) ([4]; 54% CV): 1940 ng/mL
- Median time to steady-state maximum concentration (tmax,ss) [4]: 6840 s
- time to achieve steady state [4]: 1 week
